Where “and” joins values, the source holds several entries; their conditions need not be identical. Identical values can stand only once.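 How tested: cells in 96-well plates exposed to compound for 48 hours at five concentrations. At the GI50, growth is halved. TGI denotes the concentration required for complete inhibition of growth.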
How the values were obtained:
Test in all cases: NCI anticancer screen, dose series, 48 h
[1] = system: MALME-3M melanoma
[2] = system: DMS 114 small cell lung
[3] = system: M19-MEL melanoma
[4] = system: RXF 393 renal
[5] = system: UACC-257 melanoma
[6] = system: OVCAR-5 ovarian
[7] = system: CAKI-1 renal
[8] = system: MDA-MB-435
[9] = system: DU-145 prostate
[10] = system: HOP-62 NSCLC

Structure (SMILES) | TGI [1] | TGI [2] | TGI [3] | TGI [4] | TGI [5] | TGI [6] | TGI [7] | GI50 [1] | TGI [8] | GI50 [3] | GI50 [4] | GI50 [9] | TGI [9] | GI50 [5] | GI50 [6] | GI50 [7] | TGI [10] | GI50 [10] | GI50 [8]
O=C(N/C(=C\c1ccc(Br)cc1)c1nc2ccccc2s1)c1ccccc1 | > 100 µM | > 100 µM | > 100 µM | > 100 µM | > 100 µM | > 100 µM | > 100 µM |  |  |  |  |  |  |  |  |  |  |  | 
CC[C@@H](C)[C@H]([C@H](CC(=O)N1CCC[C@@H]1[C@@H](OC)[C@H](C)C(=O)N[C@H](Cc1ccccc1)c1nccs1)OC)N(C)C(=O)[C@H](NC(=O)[C@@H](C(C)C)N(C)C)C(C)C |  | 0.00123 µM |  |  |  |  |  | 0.000425 µM | 2.94e-06 µM | 0.000425 µM | 0.0179 µM | 1.48e-05 µM | 0.000106 µM | 0.000425 µM and < 0.0589 µM | < 0.0152 µM | 0.000245 µM and 0.000425 µM |  |  | 
CN(C)c1nc(N(C)C)n2nc(-c3ccccc3[N+](=O)[O-])nc2n1 | > 100 µM | > 100 µM | > 100 µM | > 100 µM | > 100 µM | > 100 µM | > 100 µM |  |  |  |  |  |  |  |  |  | > 100 µM |  | 
CCc1ccc(/C(C)=N/NC(N)=S)cc1 | > 100 µM | > 100 µM | > 100 µM | > 100 µM |  | 72.3 µM | > 100 µM |  |  |  |  |  |  |  |  |  | > 100 µM |  | 
NC1=NC2(O)c3ccccc3C(=O)C2(O)N1 (configuration not stated) | > 100 µM | > 100 µM |  | > 100 µM | > 100 µM | > 100 µM | > 100 µM |  |  |  |  |  |  |  |  |  | > 100 µM |  | 
O=C(CCc1ccccc1)On1nnc2ccccc2c1=O | > 100 µM | > 100 µM | > 100 µM | > 100 µM | > 100 µM | > 100 µM | > 100 µM |  |  |  |  |  |  |  |  |  | > 100 µM |  | 
O=C(CCCNC(=O)OCc1ccccc1)OCc1ccc2c(c1)C(=O)c1ccccc1C2=O | > 100 µM | > 100 µM |  | 48.5 µM | > 100 µM | > 100 µM | > 89.6 µM |  |  |  |  |  |  |  |  |  | > 93.4 µM |  | 
COc1ccc(CCNCc2cccc(OC)c2OC)cc1OC | > 100 µM | > 100 µM | > 100 µM | > 100 µM | > 100 µM | > 100 µM | > 100 µM |  |  |  |  |  |  |  |  |  | > 100 µM |  | 
COc1ccc(/C(Cl)=C(\C=O)c2ccc(OC)c(OC)c2)cc1OC | > 100 µM | > 100 µM | > 100 µM | 99.7 µM | > 66.3 µM | > 48.7 µM | > 100 µM |  | > 100 µM |  |  |  | > 100 µM |  |  |  | > 100 µM |  | 
O=C1C=CN(C2OC(CO)C(O)C2O)C(=O)C1 (configuration not stated) |  |  | 1370 µM | 625 µM and > 2500 µM | > 1940 µM | > 2500 µM | 296 µM and 1010 µM |  | > 2500 µM |  | 514 µM |  | > 819 µM |  |  | 17.3 µM | 625 µM and 1340 µM | 18.7 µM | 
COc1ccc(/C=C/c2nc(=S)[nH][nH]2)cc1 | > 100 µM | > 100 µM | > 100 µM | > 100 µM | > 100 µM | > 100 µM | > 100 µM |  |  |  |  |  |  |  |  |  |  |  | 
CC(=O)NCCCCCCNC(C)=O | 7700 µM | > 10000 µM | > 10000 µM | > 10000 µM | > 10000 µM | > 10000 µM | > 10000 µM |  | > 10000 µM |  |  |  | > 10000 µM |  |  |  | > 10000 µM |  | 
Cc1cccc2c1Oc1cc(Cl)ccc1C2NC(=O)CN(C)C (configuration not stated) |  | > 100 µM | 47.6 µM | 87.8 µM | 89.5 µM | > 100 µM |  |  |  |  |  |  |  |  |  |  | > 100 µM |  | 
CCc1ccccc1-n1c2nc(=O)n(C)c(=O)c-2nc2ccccc21 | 18.2 µM | 14.2 µM | 3.69 µM | 30 µM | 18.6 µM | 34.3 µM | 49.3 µM |  |  |  |  |  |  |  |  |  | > 100 µM |  | 
COC1(OC)CC2C(=O)N(Cc3ccccc3)C1CC2S(=O)(=O)c1ccccc1 (configuration not stated) | > 100 µM | > 100 µM | > 100 µM | > 100 µM | > 100 µM |  |  |  |  |  |  |  |  |  |  |  | > 100 µM |  | 
NS(=O)(=O)c1ccc(NC(=O)CC(=O)Nc2ccc(S(N)(=O)=O)cc2)cc1 | > 100 µM | > 100 µM | > 100 µM |  | > 100 µM | > 100 µM | > 100 µM |  |  |  |  |  |  |  |  |  | > 100 µM |  | 
C[C@H]1COC2(c3ccccc3)CCC(=O)N12 (some centres not stated) | > 100 µM | > 100 µM | > 100 µM | > 100 µM | > 100 µM | > 100 µM | > 100 µM |  |  |  |  |  |  |  |  |  | > 100 µM |  | 

Structure (SMILES) | TGI [1] | TGI [2] | TGI [3] | TGI [4] | TGI [5] | TGI [6] | TGI [7] | GI50 [1] | TGI [8] | GI50 [3] | GI50 [4] | GI50 [9] | TGI [9] | GI50 [5] | GI50 [6] | GI50 [7] | TGI [10] | GI50 [10] | GI50 [8]
COC(=O)C1=C(c2cc(OC)c(OC)c(OC)c2)OC(c2cc(OC)c(OC)c(OC)c2)C1COC(C)=O (configuration not stated) | > 100 µM | > 100 µM | > 100 µM | > 100 µM | > 100 µM | > 100 µM | > 100 µM |  |  |  |  |  |  |  |  |  | > 100 µM |  | 
O=C(/C=C/c1c(O)ccc2ccccc12)c1cccc2ccccc12 | > 100 µM | > 100 µM | 71.9 µM | > 100 µM | > 100 µM | > 100 µM | > 100 µM |  |  |  |  |  |  |  |  |  | > 100 µM |  | 
Cc1[nH]c(=O)nc(CC(O)(c2ccccc2)c2ccccc2)c1-c1ccccc1 | > 100 µM | > 100 µM | > 100 µM | > 100 µM | > 100 µM | > 100 µM | > 100 µM |  |  |  |  |  |  |  |  |  | > 100 µM |  | 
COc1cccc2c1cc([N+](=O)[O-])c1c(C(=O)O)cc3c(c12)OCO3 | > 100 µM |  |  | 40.6 µM and > 56.9 µM | > 100 µM | > 87.6 µM | > 100 µM | 31.1 µM | > 100 µM |  | 18 µM | 23 µM | > 82.1 µM and 98.7 µM | 28.7 µM | 22.3 µM | 17.8 µM | 97.8 µM and > 76.6 µM | 28.4 µM | 41.5 µM
CCCCCCCCCCCCOC1C(C(COC2OC(C(O)CN3CCCCC3)C3OC(C)(C)OC23)NC(=O)Nc2ccccc2)OC2OC(C)(C)OC21 (configuration not stated) | 22.2 µM |  |  | 26.1 µM | 38 µM | 34.3 µM | 35.7 µM | 10.1 µM | 20.8 µM |  | 6.03 µM | 11.9 µM | 25.7 µM | 19.3 µM | 18.5 µM | 17.7 µM | 32.9 µM | 16.1 µM | 7.02 µM
Cc1c(C2Cc3ccccc3N2C(=O)/C=C\C(=O)O)c2ccccc2n1C (configuration not stated) | > 100 µM | 40 µM | 52.3 µM | 33.1 µM | 36.3 µM | > 100 µM | 78.7 µM |  |  |  |  |  |  |  |  |  | 57.1 µM |  | 
CCCC[P+](c1ccccc1)(c1ccccc1)c1ccccc1 | > 100 µM |  |  | > 100 µM | 7.6 µM | > 100 µM | > 100 µM | 4.29 µM | 82.6 µM |  | 18.5 µM | 4.41 µM | > 100 µM | 0.61 µM | 12.5 µM | > 100 µM | > 100 µM | 2.55 µM | 1.63 µM
CC(F)(F)c1cc(F)ccc1-c1sc2cc(O)ccc2c1Oc1ccc(/C=C/C(=O)O)cc1 | 44.4 µM |  |  | 14.5 µM | 57.5 µM | 37.7 µM | 20.2 µM | 11.6 µM | 5.51 µM |  | 2.89 µM | 12.7 µM | 28.5 µM | 14.2 µM | 17.4 µM | 6.26 µM | 26.8 µM | 9.03 µM | 2.23 µM
O=C1OC(c2ccccc2)=N/C1=C\c1c(O)cc(O)cc1O | > 100 µM | > 100 µM | > 100 µM | > 100 µM | > 100 µM | > 100 µM | > 100 µM |  |  |  |  |  |  |  |  |  |  |  | 
O=C(CCC(=O)N/N=C/c1ccccc1O)N/N=C/c1ccccc1O | > 100 µM | > 100 µM | > 100 µM | 44.4 µM | > 100 µM | > 100 µM | > 100 µM |  |  |  |  |  |  |  |  |  |  |  | 
CS(=O)(=O)OCCN(CCOS(C)(=O)=O)c1ccc(C=Nc2ccc3oc(=O)ccc3c2)cc1 | 23.8 µM | 22.3 µM | 39 µM | 1.89 µM | 26.9 µM | 28.9 µM | 9.11 µM |  | 26.1 µM |  |  |  | 35.9 µM |  |  |  | 34.1 µM |  | 
COC(=O)[C@@H](Cc1c[nH]c2ccccc12)NC(=O)/C=C/c1ccccc1 | > 100 µM |  |  | 4.58 µM | > 100 µM | > 100 µM | > 100 µM | > 100 µM | 3.91 µM |  | 1.5 µM | 4.58 µM | > 100 µM | 9.03 µM | 5.43 µM | 3.42 µM | > 100 µM | 3.62 µM | 0.782 µM
Oc1ccc(Br)cc1/C=N/NC(=S)NC12CC3CC(CC(C3)C1)C2 | 6.26 µM |  |  | 3.36 µM | 6.96 µM | 4.78 µM | 8.59 µM | 2.23 µM | 5.45 µM |  | 1.52 µM | 2.25 µM | 6.73 µM | 2.11 µM | 1.89 µM | 2.67 µM | 3.32 µM | 1.52 µM | 1.98 µM
CCn1c(-c2nonc2N)nc2c(C#CC(C)(C)O)nc(O[C@@H](CN)c3ccccc3)cc21 | 1.47 µM |  |  | 0.394 µM | 1.54 µM | 15.8 µM | 12.3 µM | 0.447 µM | 2.99 µM |  | 0.0338 µM | 0.112 µM | 4.64 µM | 0.611 µM | 0.859 µM | 3.7 µM | 1.98 µM | 0.294 µM | 0.365 µM
CN(/N=C/c1ccnc2ccccc12)c1ccc([N+](=O)[O-])cc1[N+](=O)[O-] | > 100 µM | > 100 µM | > 100 µM | > 100 µM | > 100 µM | > 100 µM | > 100 µM |  |  |  |  |  |  |  |  |  | 89.1 µM |  | 
CC1=Nc2c([nH]c(=S)[nH]c2=O)NC(c2ccc(Cl)c(Cl)c2)C1 (configuration not stated) | > 100 µM | > 81 µM | 34.2 µM | 38.2 µM | 47 µM | > 100 µM | > 100 µM |  |  |  |  |  |  |  |  |  | > 100 µM |  | 
N#CCC(=O)N/N=C1/C(=O)NC(=O)C(=O)C1c1nc2ccccc2s1 (configuration not stated) | > 100 µM | > 100 µM | > 100 µM | > 100 µM | > 100 µM | > 100 µM | > 100 µM |  |  |  |  |  |  |  |  |  | > 100 µM |  | 

Reference: PubChem BioAssay (NCI)
